Source: ChEMBL document CHEMBL1130584, “Synthesis of boronic acid analogs of L-arginine as alternate substrates or inhibitors of nitric oxide synthase” (Bioorg Med Chem Lett, 1998)

Tests used:
[1] = biological target: T1, Nitric oxide synthase, inducible (Homo sapiens, UniProt P35228); assay: Compound was tested for inhibitory activity against inducible nitric oxide synthase
[2] = biological target: Nitric oxide synthase 1 (Homo sapiens, UniProt P29475); assay: Compound was tested for inhibitory activity against neuronal nitric oxide synthase
[3] = biological target: T1, Nitric oxide synthase, inducible; assay: Compound was tested for inhibitory activity against inducible nitric oxide synthase using L-arginine as substrate

T1 sequence (P35228 whole entry): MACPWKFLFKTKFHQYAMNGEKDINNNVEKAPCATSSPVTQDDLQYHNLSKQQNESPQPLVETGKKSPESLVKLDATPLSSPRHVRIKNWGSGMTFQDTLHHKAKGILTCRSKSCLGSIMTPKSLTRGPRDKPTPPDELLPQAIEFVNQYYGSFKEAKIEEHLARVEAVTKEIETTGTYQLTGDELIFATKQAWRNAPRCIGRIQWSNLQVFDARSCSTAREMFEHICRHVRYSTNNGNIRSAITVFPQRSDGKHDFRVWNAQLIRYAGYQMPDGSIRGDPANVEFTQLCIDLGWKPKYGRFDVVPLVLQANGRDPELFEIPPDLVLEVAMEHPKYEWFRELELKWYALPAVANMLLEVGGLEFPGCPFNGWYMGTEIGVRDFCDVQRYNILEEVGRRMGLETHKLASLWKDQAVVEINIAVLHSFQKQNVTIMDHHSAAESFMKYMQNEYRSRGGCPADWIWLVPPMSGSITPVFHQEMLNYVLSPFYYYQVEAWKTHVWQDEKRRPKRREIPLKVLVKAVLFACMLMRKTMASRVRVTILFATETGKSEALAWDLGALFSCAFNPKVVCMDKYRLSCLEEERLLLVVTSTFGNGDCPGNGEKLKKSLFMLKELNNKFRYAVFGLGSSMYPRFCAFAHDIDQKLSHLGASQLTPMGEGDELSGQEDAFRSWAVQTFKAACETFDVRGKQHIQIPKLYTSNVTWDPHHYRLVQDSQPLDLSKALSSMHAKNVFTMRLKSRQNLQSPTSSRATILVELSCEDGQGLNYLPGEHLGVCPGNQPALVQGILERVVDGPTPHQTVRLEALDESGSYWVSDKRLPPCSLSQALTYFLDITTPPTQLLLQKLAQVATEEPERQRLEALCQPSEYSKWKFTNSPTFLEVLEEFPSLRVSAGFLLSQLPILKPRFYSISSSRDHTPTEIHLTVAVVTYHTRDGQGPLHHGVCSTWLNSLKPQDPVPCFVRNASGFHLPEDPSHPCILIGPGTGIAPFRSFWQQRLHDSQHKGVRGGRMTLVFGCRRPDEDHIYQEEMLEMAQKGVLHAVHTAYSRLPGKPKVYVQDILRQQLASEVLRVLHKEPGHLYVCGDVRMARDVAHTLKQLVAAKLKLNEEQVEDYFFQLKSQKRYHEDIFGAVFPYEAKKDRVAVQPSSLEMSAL
Nitric oxide synthase 1, sequence (P29475 whole entry): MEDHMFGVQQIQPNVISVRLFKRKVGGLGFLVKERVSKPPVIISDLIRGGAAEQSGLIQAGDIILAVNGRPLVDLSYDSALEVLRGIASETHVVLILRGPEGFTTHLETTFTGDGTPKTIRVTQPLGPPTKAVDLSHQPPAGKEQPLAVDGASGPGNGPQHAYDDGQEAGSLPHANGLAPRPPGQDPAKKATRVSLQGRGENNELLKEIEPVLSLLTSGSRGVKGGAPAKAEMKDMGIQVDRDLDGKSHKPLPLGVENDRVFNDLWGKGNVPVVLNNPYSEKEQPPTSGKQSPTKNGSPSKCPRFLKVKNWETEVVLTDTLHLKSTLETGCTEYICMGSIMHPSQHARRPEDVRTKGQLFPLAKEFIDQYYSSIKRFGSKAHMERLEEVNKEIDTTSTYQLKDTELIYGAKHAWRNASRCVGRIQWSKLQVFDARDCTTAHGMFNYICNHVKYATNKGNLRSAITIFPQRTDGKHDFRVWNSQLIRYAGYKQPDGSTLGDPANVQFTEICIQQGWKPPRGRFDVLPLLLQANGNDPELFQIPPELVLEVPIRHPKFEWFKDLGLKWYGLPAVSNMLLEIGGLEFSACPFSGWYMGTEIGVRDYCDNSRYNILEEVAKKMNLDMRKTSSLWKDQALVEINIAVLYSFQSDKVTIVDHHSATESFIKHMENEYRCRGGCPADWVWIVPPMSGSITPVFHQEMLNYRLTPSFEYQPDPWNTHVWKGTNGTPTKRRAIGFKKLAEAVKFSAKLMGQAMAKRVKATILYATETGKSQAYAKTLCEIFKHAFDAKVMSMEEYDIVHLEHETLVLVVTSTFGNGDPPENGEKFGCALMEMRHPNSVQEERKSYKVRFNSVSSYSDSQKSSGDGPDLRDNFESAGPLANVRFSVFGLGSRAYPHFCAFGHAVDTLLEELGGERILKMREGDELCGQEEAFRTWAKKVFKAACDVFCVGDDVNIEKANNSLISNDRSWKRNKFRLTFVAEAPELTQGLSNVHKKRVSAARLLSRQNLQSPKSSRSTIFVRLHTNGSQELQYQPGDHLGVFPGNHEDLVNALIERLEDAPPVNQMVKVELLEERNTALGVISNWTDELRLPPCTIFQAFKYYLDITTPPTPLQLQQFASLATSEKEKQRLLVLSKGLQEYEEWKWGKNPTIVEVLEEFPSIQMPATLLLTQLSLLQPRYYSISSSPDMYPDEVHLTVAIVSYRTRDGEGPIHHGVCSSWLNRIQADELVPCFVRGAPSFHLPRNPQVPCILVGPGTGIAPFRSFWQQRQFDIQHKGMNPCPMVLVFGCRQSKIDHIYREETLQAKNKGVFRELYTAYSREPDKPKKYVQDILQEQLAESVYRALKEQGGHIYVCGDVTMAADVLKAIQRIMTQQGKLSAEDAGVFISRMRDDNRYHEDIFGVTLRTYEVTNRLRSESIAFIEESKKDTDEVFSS

CC(=O)N[C@@H](CCCN=C(N)N)B(O)O
IC50 [1]: > 500 µM
IC50 [2]: > 500 µM

NC(N)=NCCC[C@H](N)B(O)O
IC50 [1]: 50 µM
Ks [3]: 200 µM
IC50 [2]: 300 µM
